What all share (assay type): in vivo
In one data set the test system is Digitaria ciliaris. Briefly: Test Example 4: herbicidal effect by application to foliage (diluvial soil, plastic box). As to conditions: for F: herbicidal effect on Digitaria ciliaris: application to foliage, application herbicide amount 320 g/ha. The procedure, abridged:
(§1)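 Greenhouse plants (25° C. to 30° C., 14 d, diluvial soil) receive a foliar spray of water-diluted emulsifiable formulation at defined g/ha. Grading after 3 weeks uses a six-step herbicidal-ratio scale, with 4 covering 70% to <90% and 1 covering 5% to <20%.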

Another data set concerns Abutilon theophrasti. Described as above. Particulars: for M: herbicidal effect on Abutilon theophrasti: application to foliage, application herbicide amount 320 g/ha. An outline of the steps: as §1
A further data set has as its system Chenopodium album. Described as above. Particulars: for O: herbicidal effect on Chenopodium album: application to foliage, application herbicide amount 320 g/ha. The procedure, abridged: as §1
The next data set concerns Apera spica-venti. Described as above. As to conditions: for L: herbicidal effect on Apera spica-venti.: application to foliage, application herbicide amount 320 g/ha. The procedure, abridged: as §1
The test system of a further data set is Setaria viridis. The description is as above. Particulars: for G: herbicidal effect on Setaria viridis: application to foliage, application herbicide amount 320 g/ha. The procedure, abridged:
as §1

The subject of data set [1] is Echinochloa crus-galli var. crus-galli. The data set is described as above. As to conditions: for H: herbicidal effect on Echinochloa crus-galli var. crus-galli: application to foliage, application herbicide amount 320 g/ha. The procedure, abridged:
as §1

For the next data set, the system named is Alopecurus myosuroides. Described as above. Particulars: for J: herbicidal effect on Alopecurus myosuroides: application to foliage, application herbicide amount 320 g/ha. An outline of the steps: as §1
In the next data set the test system is Avena fatua. The description is as above. Particulars: for I: herbicidal effect on Avena fatua: application to foliage, application herbicide amount 320 g/ha. The procedure, abridged: as §1
The next data set has as its system Lolium multiflorum Lam. The description is as above. As to conditions: for K: herbicidal effect on Lolium multiflorum Lam.: application to foliage, application herbicide amount 320 g/ha. An outline of the steps:
as §1

A further data set concerns Galium spurium. The description is as above. As to conditions: for Q: herbicidal effect on Galium spurium: application to foliage, application herbicide amount 320 g/ha. The procedure, abridged: as §1
For data set [2], the system named is directly sowed Oryza sativa. Briefly: Test Example 4: effect on crop by application to foliage (diluvial soil, plastic box). Particulars: for b: effect on crop, directly sowed Oryza sativa: application to foliage, application herbicide amount 320 g/ha. An outline of the steps:
as §1

For the next data set, the system named is Zea mays. Described as above. As to conditions: for c: effect on crop, Zea mays: application to foliage, application herbicide amount 320 g/ha. An outline of the steps:
as §1

The test system of another data set is Glycine max. The data set is described as above. As to conditions: for d: effect on crop, Glycine max: application to foliage, application herbicide amount 320 g/ha. An outline of the steps: as §1
Another data set concerns Triticum aestivum. The description is as above. As to conditions: for e: effect on crop, Triticum aestivum: application to foliage, application herbicide amount 320 g/ha. An outline of the steps: as §1
Another data set relates to Brassica campestris L. Described as above. Particulars: for g: effect on crop, Brassica campestris L.: application to foliage, application herbicide amount 320 g/ha. The procedure, abridged:
as §1

The test system of data set [3] is Beta vulgaris ssp. vulgaris. Described as above. As to conditions: for f: effect on crop, Beta vulgaris ssp. vulgaris: application to foliage, application herbicide amount 320 g/ha. An outline of the steps: as §1
A further data set has as its system Leptochloa chinensis. As to the kind of experiment: Test Example 3: herbicidal effect by application to foliage (Wagner pot, water depth 0.1-0.5 cm). As to conditions: Nineteenth Table; application to foliage; application herbicide amount 320 g/ha. An outline of the steps: (§2)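 Visual 0–5 rating of herbicidal ratio, taken 3 weeks after foliar spray of a diluted emulsion formulation at rates expressed as g/ha. Plants had been sown in alluvial soil under 0.1–0.5 cm water and grown 14 days at 25–30 °C under glass before application.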

Data set [4] deals with Echinochloa crus-galli var. crus-galli. Described as above. As to conditions: Nineteenth Table; application to foliage; application herbicide amount 320 g/ha. The procedure, abridged: as §2
The mark [5] stands for this setting: Application herbicide amount 320 g/ha.
The mark [6] stands for this setting: Application herbicide amount 320 g/ha, effect on crop.

Take `CN(CCC#N)c1nnc2c(C(=O)Nc3nnco3)ccc(C(F)(F)F)n12` [1-164]: the “F: herbicidal effect on Digitaria ciliaris” value (“F: herbicidal effect” below) in the data set on Digitaria ciliaris is 5 (Herbicidal ratio of 90% or more (almost completely withered)). Moreover, in the data set with Abutilon theophrasti, the “M: herbicidal effect on Abutilon theophrasti” value (“M: herbicidal effect” below) is 4 (Herbicidal ratio of 70% or more and less than 90%). Also, in the data set on Chenopodium album, the “O: herbicidal effect on Chenopodium album” value (“O: herbicidal effect” below) is listed as 5 (Herbicidal ratio of 90% or more (almost completely withered)). In addition, in the data set on Apera spica-venti., the “L: herbicidal effect on Apera spica-venti.” value (from here on “L: herbicidal effect”) is 3 (Herbicidal ratio of 40% or more and less than 70%). Further, the “G: herbicidal effect on Setaria viridis” value in the data set with Setaria viridis is listed as 5 (Herbicidal ratio of 90% or more (almost completely withered)). For the same molecule, the “H: herbicidal effect on Echinochloa crus-galli var. crus-galli” value (“H: herbicidal effect” for short) in data set [1] is given as 5 (Herbicidal ratio of 90% or more (almost completely withered)). Moreover, in the data set with Alopecurus myosuroides, the “J: herbicidal effect on Alopecurus myosuroides” value (“J: herbicidal effect” for short) is 1 (Herbicidal ratio of 5% or more and less than 20%). For the same molecule, the “I: herbicidal effect on Avena fatua” value in the data set with Avena fatua was 3 (Herbicidal ratio of 40% or more and less than 70%). Further, the “K: herbicidal effect on Lolium multiflorum Lam.” value (“K: herbicidal effect” for short) in the data set with Lolium multiflorum Lam. was 1 (Herbicidal ratio of 5% or more and less than 20%). Also, in the data set with Galium spurium, the “Q: herbicidal effect on Galium spurium” value was 4 (Herbicidal ratio of 70% or more and less than 90%). In data set [2], the “b: effect on crop, directly sowed Oryza sativa” value (shortened to “b: effect on crop”) was 4 (Herbicidal ratio of 70% or more and less than 90%). Besides, the “c: effect on crop, Zea mays” value in the data set with Zea mays was 0 (Herbicidal ratio of 5% or less (almost no effect)). Also, the “d: effect on crop, Glycine max” value with Glycine max is on record as 5 (Herbicidal ratio of 90% or more (almost completely withered)). The “e: effect on crop, Triticum aestivum” value in the data set on Triticum aestivum is 3 (Herbicidal ratio of 40% or more and less than 70%). In the data set with Brassica campestris L., the “g: effect on crop, Brassica campestris L.” value (“g: effect on crop” for short) was 4 (Herbicidal ratio of 70% or more and less than 90%). Also, in [3], the “f: effect on crop, Beta vulgaris ssp. vulgaris” value (from here on “f: effect on crop”) is given as 5 (Herbicidal ratio of 90% or more (almost completely withered)). For the same molecule, the “D (herbicidal effect grade)” value in the data set on Leptochloa chinensis was 5 (Herbicidal ratio of 90% or more (almost completely withered)). Further, the “H (herbicidal effect grade)” value in data set [4] is listed as 5 (Herbicidal ratio of 90% or more (almost completely withered)).

As for `Cc1nnc(NC(=O)c2ccc(C(F)(F)F)n3c(CC(F)(F)F)nnc23)o1` [1-162], the “F: herbicidal effect” value in the data set on Digitaria ciliaris is 3 (Herbicidal ratio of 40% or more and less than 70%). Further, in the data set on Abutilon theophrasti, the “M: herbicidal effect” value was 3 (Herbicidal ratio of 40% or more and less than 70%). The “O: herbicidal effect” value in the data set on Chenopodium album was 4 (Herbicidal ratio of 70% or more and less than 90%). Also, the “L: herbicidal effect” value in the data set on Apera spica-venti. is on record as 0 (Herbicidal ratio of 5% or less (almost no effect)). The “G: herbicidal effect on Setaria viridis” value in the data set on Setaria viridis was 1 (Herbicidal ratio of 5% or more and less than 20%). Also, in data set [1], the “H: herbicidal effect” value is 4 (Herbicidal ratio of 70% or more and less than 90%). The “J: herbicidal effect” value in the data set with Alopecurus myosuroides was 1 (Herbicidal ratio of 5% or more and less than 20%). Besides, the “I: herbicidal effect on Avena fatua” value in the data set on Avena fatua was 1 (Herbicidal ratio of 5% or more and less than 20%). For the same molecule, in the data set with Lolium multiflorum Lam., the “K: herbicidal effect” value is 1 (Herbicidal ratio of 5% or more and less than 20%). Also, the “Q: herbicidal effect on Galium spurium” value in the data set on Galium spurium was 2 (Herbicidal ratio of 20% or more and less than 40%). Besides, the “b: effect on crop” value in data set [2] was 0 (Herbicidal ratio of 5% or less (almost no effect)). Besides, in the data set on Zea mays, the “c: effect on crop, Zea mays” value is recorded as 0 (Herbicidal ratio of 5% or less (almost no effect)). Besides, the “d: effect on crop, Glycine max” value in the data set with Glycine max was 3 (Herbicidal ratio of 40% or more and less than 70%). Besides, the “e: effect on crop, Triticum aestivum” value in the data set with Triticum aestivum is on record as 0 (Herbicidal ratio of 5% or less (almost no effect)). Moreover, the “g: effect on crop” value with Brassica campestris L. was 1 (Herbicidal ratio of 5% or more and less than 20%). Further, the “f: effect on crop” value in data set [3] was 3 (Herbicidal ratio of 40% or more and less than 70%). Besides, the “D (herbicidal effect grade)” value in the data set with Leptochloa chinensis is 4 (Herbicidal ratio of 70% or more and less than 90%). Further, the “H (herbicidal effect grade)” value in data set [4] is 4 (Herbicidal ratio of 70% or more and less than 90%).

Regarding `C=CCc1nnc2c(C(=O)Nc3nnco3)ccc(C(F)(F)F)n12` [1-158], the “F: herbicidal effect” value in the data set with Digitaria ciliaris was 5 (Herbicidal ratio of 90% or more (almost completely withered)). Also, the “M: herbicidal effect” value in the data set with Abutilon theophrasti is 4 (Herbicidal ratio of 70% or more and less than 90%). Also, the “O: herbicidal effect” value with Chenopodium album is listed as 5 (Herbicidal ratio of 90% or more (almost completely withered)). Further, the “L: herbicidal effect” value in the data set with Apera spica-venti. is 3 (Herbicidal ratio of 40% or more and less than 70%). For the same molecule, the “G: herbicidal effect on Setaria viridis” value with Setaria viridis was 4 (Herbicidal ratio of 70% or more and less than 90%). In addition, in [1], the “H: herbicidal effect” value was 5 (Herbicidal ratio of 90% or more (almost completely withered)). Besides, the “J: herbicidal effect” value in the data set with Alopecurus myosuroides was 1 (Herbicidal ratio of 5% or more and less than 20%). For the same molecule, the “I: herbicidal effect on Avena fatua” value in the data set on Avena fatua was 3 (Herbicidal ratio of 40% or more and less than 70%). For the same molecule, in the data set with Lolium multiflorum Lam., the “K: herbicidal effect” value is 2 (Herbicidal ratio of 20% or more and less than 40%). In addition, the “Q: herbicidal effect on Galium spurium” value with Galium spurium was 3 (Herbicidal ratio of 40% or more and less than 70%). Further, the “b: effect on crop” value in [2] is 0 (Herbicidal ratio of 5% or less (almost no effect)). Besides, the “c: effect on crop, Zea mays” value with Zea mays is 0 (Herbicidal ratio of 5% or less (almost no effect)). In the data set on Glycine max, the “d: effect on crop, Glycine max” value was 4 (Herbicidal ratio of 70% or more and less than 90%). Besides, the “e: effect on crop, Triticum aestivum” value with Triticum aestivum is 2 (Herbicidal ratio of 20% or more and less than 40%). The “g: effect on crop” value in the data set with Brassica campestris L. was 3 (Herbicidal ratio of 40% or more and less than 70%). Besides, the “f: effect on crop” value in data set [3] is given as 5 (Herbicidal ratio of 90% or more (almost completely withered)). The “D (herbicidal effect grade)” value in the data set with Leptochloa chinensis was 4 (Herbicidal ratio of 70% or more and less than 90%). Besides, in data set [4], the “H (herbicidal effect grade)” value is given as 5 (Herbicidal ratio of 90% or more (almost completely withered)).

Regarding `Cc1nnc(NC(=O)c2ccc(C(F)(F)F)n3c(CC(=O)NC(C)C)nnc23)o1` [1-061], in the data set with Digitaria ciliaris (setting [5]), the F is 3 (Herbicidal ratio of 40% or more and less than 70%). Moreover, the M with Abutilon theophrasti (setting [5]) is 5 (Herbicidal ratio of 90% or more (almost completely withered)). In addition, the O with Chenopodium album (setting [5]) is reported as 5 (Herbicidal ratio of 90% or more (almost completely withered)). Further, the L in the data set on Apera spica-venti. (setting [5]) was 1 (Herbicidal ratio of 5% or more and less than 20%). For the same molecule, in the data set on Setaria viridis (setting [5]), the G was 3 (Herbicidal ratio of 40% or more and less than 70%). Also, in data set [1] (setting [5]), the H was 4 (Herbicidal ratio of 70% or more and less than 90%). Moreover, in the data set on Alopecurus myosuroides (setting [5]), the J is 1 (Herbicidal ratio of 5% or more and less than 20%). The I with Avena fatua (setting [5]) is 3 (Herbicidal ratio of 40% or more and less than 70%). Moreover, the K in the data set with Lolium multiflorum Lam. (setting [5]) is 1 (Herbicidal ratio of 5% or more and less than 20%). In the data set on Galium spurium (setting [5]), the Q was 4 (Herbicidal ratio of 70% or more and less than 90%). Also, the d in data set [2] (setting [6]) was 4 (Herbicidal ratio of 70% or more and less than 90%). Further, in the data set with Zea mays (setting [6]), the b is 1 (Herbicidal ratio of 5% or more and less than 20%). Besides, in the data set on Glycine max (setting [6]), the c was 1 (Herbicidal ratio of 5% or more and less than 20%). In addition, the e in the data set on Triticum aestivum (setting [6]) is 0 (Herbicidal ratio of 5% or less (almost no effect)). The g in the data set with Brassica campestris L. (setting [6]) is 4 (Herbicidal ratio of 70% or more and less than 90%). In addition, the f in data set [3] (setting [6]) was 4 (Herbicidal ratio of 70% or more and less than 90%). The “D (herbicidal effect grade)” value in the data set on Leptochloa chinensis was 4 (Herbicidal ratio of 70% or more and less than 90%). In addition, the “H (herbicidal effect grade)” value in data set [4] was 5 (Herbicidal ratio of 90% or more (almost completely withered)).

These data come from US9708314B2, “Heterocyclic amide compound” (NISSAN CHEMICAL INDUSTRIES, LTD., priority 2013, dated 2017).
